According to article PMC7575488, “Phase 1 dose-escalation study of a novel oral PI3K/mTOR dual inhibitor, LY3023414, in patients with cancer” (Investigational New Drugs, 2020):
Like-named read-outs stand apart in the source and are kept apart here. Marks after values point to notes of the source that are not given here.

Assays:
[1] = Blood pharmacokinetics (dried blood spot LC-MS/MS, non-compartmental analysis); type: in vivo, human; settings: for CL/F: based on AUC0-∞; for CL/F (CLss/F): Cycle 1 Day 15 (multiple dose, steady state); for Tmax / half-life / Vd/F / AUC(0-inf) / Cmax / AUC(0-t): human, oral; for Vd/F: read-out: Vz/F; for AUC(0-t): tlast 12 h (AUCτ), read-out: AUC0-tlast
Experimental: For PK assessment, blood samples were collected at pre dose and 0.5, 1, 2, 4, 8, and 12 h post dose on 2 occasions: (i) on Day 1 of Cycle 1 (single dose), and (ii) on Day 15 of Cycle 1 (multiple dose). For PD assessment, blood samples were collected at pre dose and 0.5, 1, 2, and 4 h post dose on 2 occasions: (i) on Day 1 of Cycle 1 (single dose), and (ii) on Day 15 of Cycle 1 (multiple dose).
Blood concentrations of LY3023414 were assayed using a validated dried blood spot liquid chromatography-mass spectrometry/mass spectrometry method at a designated laboratory. The PK parameter estimates for LY3023414 were calculated by standard non-compartmental methods of analysis using Phoenix WinNonlin® 8.0 (Certara, L.P.; Princeton, NJ, USA). The primary parameters for analysis were maximum observed blood concentration (Cmax), time of Cmax (tmax), area under the blood concentration-time curve from time zero to the last measurable blood concentration (AUC0-tlast), and area under the blood concentration-time curve from time zero to infinity (AUC0-∞) of LY3023414. Other non-compartmental parameters, such as half-life (t1/2), apparent total body clearance (CL/F) on Cycle 1 Day 1, apparent total body clearance at steady state (CLss/F) on Cycle 1 Day 15, and apparent volume of distribution during the terminal phase (Vz/F), were also assessed.

PI3K/mTOR = system: PI3K/mTOR; design: method as in PMID 29636360; settings: at doses ≥150 mg; cited from earlier work
CYP3A4 = system: CYP3A4; design: method as in PMID 29636360; settings: drug-drug interaction analysis; cited from earlier work
[2] = design: method as in PMID 29636360; settings: across a wide pH range; cited from earlier work
tumor xenograft models = settings: cited from earlier work
[3] = whole blood, 150 mg, 150 mg BID, Cycle 1 Day 1 (single dose), blood, N = 3, geometric mean (% CV)
[4] = whole blood, 150 mg, 150 mg BID, Cycle 1 Day 15 (multiple dose), blood, N = 3, geometric mean (% CV)
[5] = whole blood, 200 mg, 200 mg BID, Cycle 1 Day 1 (single dose), blood, N = 9, geometric mean (% CV)
[6] = whole blood, 200 mg, 200 mg BID, Cycle 1 Day 15 (multiple dose), blood, N = 7, geometric mean (% CV)

## CO[C@@H](C)Cn1c(=O)n(C)c2cnc3ccc(-c4cncc(C(C)(C)O)c4)cc3c21 [LY3023414]
[1]; 150 mg BID, Cycle 1 Day 1 (single dose), N = 3, geometric mean (% CV)
  CL/F: 49.2 (19) L/hr
[1]; 150 mg BID, N = 3, geometric mean (% CV)
  CL/F (CLss/F): 30.4 (45) L/hr
[1]; 200 mg BID, Cycle 1 Day 1 (single dose), N = 8, geometric mean (% CV 29)
  CL/F: 48.5^c (29) L/hr
[1]; 200 mg BID, N = 7, geometric mean (% CV)
  CL/F (CLss/F): 48.6 (33) L/hr
[1]; whole blood (dried blood spot), 200 mg, post administration, each dose level (150 and 200 mg), read-out: median tmax
  Tmax: 1 to 3 h
[1]; whole blood (dried blood spot), Days 1 and 15 in Cycle 1, each dose level, read-out: geometric mean t1/2 (converted)
  half-life: ~2 h
[1]; whole blood, 150 mg, 150 mg BID, Cycle 1 Day 1 (single dose), N = 3, geometric mean (% CV)
  Vd/F: 113 L
[1]; [3]
  AUC(0-inf): 3050 ng·h/mL
  Cmax: 792 ng/mL
  AUC(0-t): 3000 ng·h/mL
[1]; whole blood, 150 mg, 150 mg BID, Cycle 1 Day 1 (single dose), blood, N = 3, geometric mean (range), read-out: t1/2 (converted)
  half-life: 1.59 h
[1]; whole blood, 150 mg, 150 mg BID, Cycle 1 Day 1 (single dose), blood, N = 3, median (range), read-out: tmax
  Tmax: 2.93 h
[1]; whole blood, 150 mg, 150 mg BID, Cycle 1 Day 15 (multiple dose), N = 3, geometric mean (% CV)
  Vd/F: 79.3 L
[1]; [4]
  AUC(0-inf): 5010 ng·h/mL
  Cmax: 1570 ng/mL
  AUC(0-t): 4920 ng·h/mL
[1]; whole blood, 150 mg, 150 mg BID, Cycle 1 Day 15 (multiple dose), blood, N = 3, geometric mean (range), read-out: t1/2 (converted)
  half-life: 1.81 h
[1]; whole blood, 150 mg, 150 mg BID, Cycle 1 Day 15 (multiple dose), blood, N = 3, median (range), read-out: tmax
  Tmax: 1 h
[1]; whole blood, 200 mg, 200 mg BID, Cycle 1 Day 1 (single dose), N = 8, geometric mean (% CV 35)
  Vd/F: 136 L
[1]; whole blood, 200 mg, 200 mg BID, Cycle 1 Day 1 (single dose), blood, N = 8, geometric mean (% CV 29)
  AUC(0-inf): 4120 ng·h/mL
[1]; whole blood, 200 mg, 200 mg BID, Cycle 1 Day 1 (single dose), blood, N = 8, geometric mean (range 1.52–3.15), read-out: t1/2 (converted)
  half-life: 1.94 h
[1]; [5]
  Cmax: 1020 ng/mL
  AUC(0-t): 4140 ng·h/mL
[1]; whole blood, 200 mg, 200 mg BID, Cycle 1 Day 1 (single dose), blood, N = 9, median (range), read-out: tmax
  Tmax: 1.95 h
[1]; whole blood, 200 mg, 200 mg BID, Cycle 1 Day 15 (multiple dose), N = 7, geometric mean (% CV)
  Vd/F: 129 L
[1]; [6]
  AUC(0-inf): 4210 ng·h/mL
  Cmax: 1010 ng/mL
  AUC(0-t): 4100 ng·h/mL
[1]; whole blood, 200 mg, 200 mg BID, Cycle 1 Day 15 (multiple dose), blood, N = 7, geometric mean (range), read-out: t1/2 (converted)
  half-life: 1.83 h
[1]; whole blood, 200 mg, 200 mg BID, Cycle 1 Day 15 (multiple dose), blood, N = 7, median (range), read-out: tmax
  Tmax: 1.97 h
PI3K/mTOR
  Target inhibition: ≥ 90%
CYP3A4
  Inhibition of the metabolic clearance of drugs metabolized through CYP3A4: weak inhibitor
[2]
  Solubility: good solubility
Tumor xenograft models
  Antitumor activity: potent antitumor activity
